# Experimental data from patent US5658905A, “Use of triazine compounds as anxiolytics” (priority 1993, dated 1997).
# Where a name gives a salt, the structure may show the parent alone. Read-outs that look alike come from different tables or passages of the source.
# What was measured:
# [1] = Vogel conflict (punished drinking) model of anxiety
# [2] = reported; models not named; cited from earlier work
# [3] = isethionate salt, EP-A-0 247 892, cited from earlier work
# [4] = tested on: mice; assay: Orientative acute oral toxicity (LD50) in mice; format: in vivo; settings: 50% survive 10 days after administration
# Text: (§1) The present compounds are non-toxic at prophylactically and therapeutically effective doses. […] These are the dose levels at which 50% of the animals survive 10 days after administration of compound A.
# [5] = Orientative acute oral toxicity (LD50) in rats; settings: rat, in vivo, 50% survive 10 days after administration
# Text: as §1
# [6] = tested on: voltage-sensitive sodium channels; settings: Lang et al 1993; Lees and Leach 1993; cited from earlier work
# [7] = tested on: release of excitatory amino acids, principally glutamate; settings: at anticonvulsant brain concentrations; Leach et al 1986; Zhu and McGee 1990; cited from earlier work
# [8] = Rattus norvegicus, po, 1 h, read-out: number of licks, percentage of vehicle control responding, 20 mg/kg p.o., one hour before test, vehicle=100% (Table 3)
# [9] = Rattus norvegicus, po, 1 h, read-out: number of licks, percentage of vehicle control responding, 40 mg/kg p.o., one hour before test, vehicle=100% (Table 3)
# [10] = Rattus norvegicus, po, 1 h, read-out: number of licks, percentage of vehicle control responding, 80 mg/kg p.o., one hour before test, vehicle=100% (Table 3)
# [11] = dose-response across tested doses, significance p<0.05, Mann-Whitney U-test
# [12] = Rattus norvegicus, 1 h, read-out: number of licks, percentage of vehicle control responding
# [13] = Rattus norvegicus, po, 1 h, read-out: number of licks, percentage of vehicle control responding
# [14] = Rattus norvegicus, po, 1 h, read-out: number of licks, percentage of vehicle control responding, 160 mg/kg p.o., one hour before test, vehicle=100% (Table 3)
# [15] = Rattus norvegicus, sc, 20 min, read-out: number of licks, percentage of vehicle control responding
smiles,measurement,setting,value
NC(=O)N1c2ccccc2C=Cc2ccccc21 [Carbamazepine],effect on punished responding (in words),[1]; 5.0 mg/kg p.o.,no effect
same,effect on punished responding (in words),[1]; 20 mg/kg p.o.,non-significant increase in PR
same,response vs control in vivo at 5 mg/kg,"[1]; Rattus norvegicus, po, 1 h, read-out: number of licks, percentage of vehicle control responding, 5.0 mg/kg p.o., one hour before test, vehicle=100% (Table 2)",87%
same,response vs control in vivo at 10 mg/kg,"[1]; Rattus norvegicus, po, 1 h, read-out: number of licks, percentage of vehicle control responding, 10 mg/kg p.o., one hour before test, vehicle=100% (Table 3)",154%
same,response vs control in vivo at 20 mg/kg,"[1]; Rattus norvegicus, po, 1 h, read-out: number of licks, percentage of vehicle control responding, 20.0 mg/kg p.o., one hour before test, vehicle=100% (Table 2)",161%
same,response vs control in vivo at 20 mg/kg,[1]; [8],206%
same,response vs control in vivo at 40 mg/kg,[1]; [9],219%
same,response vs control in vivo at 80 mg/kg,[1]; [10],309%
same,effect on punished responding (in words),[1]; [11],"dose-related, significant increase in punished responding"
Cc1nccn1CC1CCc2c(c3ccccc3n2C)C1=O (stereo not drawn) [Ondansetron hydrochloride],anxiolytic effects in other animal models,[2],reported to exhibit anxiolytic effects in other animal models
same,response vs control in vivo at 0.0001 mg/kg,"[1]; Rattus norvegicus, po, 1 h, read-out: number of licks, percentage of vehicle control responding, 0.1 μg/kg p.o., one hour before test, vehicle=100% (Table 3)",68%
same,response vs control in vivo at 0.001 mg/kg,"[1]; Rattus norvegicus, po, 1 h, read-out: number of licks, percentage of vehicle control responding, 1.0 μg/kg p.o., one hour before test, vehicle=100% (Table 3)",80%
same,response vs control in vivo at 0.01 mg/kg,"[1]; Rattus norvegicus, po, 1 h, read-out: number of licks, percentage of vehicle control responding, 10 μg/kg p.o., one hour before test, vehicle=100% (Table 3)",70%
same,response vs control in vivo at 0.1 mg/kg,"[1]; Rattus norvegicus, po, 1 h, read-out: number of licks, percentage of vehicle control responding, 100 μg/kg p.o., one hour before test, vehicle=100% (Table 3)",87%
same,effect on punished responding (in words),[1]; [11],lack of any significant anxiolytic effect
"Nc1nnc(-c2cccc(Cl)c2Cl)c(N)n1 [Compound A isethionate, 3,5-diamino-6-(2,3-dichlorophenyl)-1,2,4-triazine isethionate]",solubility,[3],good solubility
same,solubility,[3]; listed as salt with isethionic acid,particularly good solubility
same,other behavioural changes,"[1]; 10, 20, 40 mg/kg base equivalent p.o.",no other behavioural changes were observed
same,response vs control in vivo at 10 mg/kg,[1]; [12],92%
same,response vs control in vivo at 20 mg/kg,[1]; [12],165%
same,response vs control in vivo at 40 mg/kg,[1]; [12],208%
same,effect on punished responding (in words),[1]; [11],"dose-related increase in punished responding at 20 and 40 mg/kg, that at the latter dose being significant"
CCCC(CCC)C(=O)O [Sodium valproate],response vs control in vivo at 40 mg/kg,[1]; [13],79%
same,response vs control in vivo at 80 mg/kg,[1]; [13],108%
same,response vs control in vivo at 160 mg/kg,[1]; [13],151%
same,response vs control in vivo at 320 mg/kg,[1]; [13],261%
O=C1NC(=O)C(c2ccccc2)(c2ccccc2)N1 [Phenytoin sodium],effect on punished responding (in words),[1]; 10 or 40 mg/kg p.o.,no effect on PR
same,response vs control in vivo at 10 mg/kg,"[1]; Rattus norvegicus, po, 1 h, read-out: number of licks, percentage of vehicle control responding, 10.0 mg/kg p.o. (parent acid equivalent), one hour before test, vehicle=100% (Table 2)",121%
same,response vs control in vivo at 20 mg/kg,[1]; [8],101%
same,response vs control in vivo at 40 mg/kg,"[1]; Rattus norvegicus, po, 1 h, read-out: number of licks, percentage of vehicle control responding, 40.0 mg/kg p.o. (parent acid equivalent), one hour before test, vehicle=100% (Table 2)",114%
same,response vs control in vivo at 40 mg/kg,[1]; [9],135%
same,response vs control in vivo at 80 mg/kg,[1]; [10],220%
same,response vs control in vivo at 160 mg/kg,[1]; [14],173%
CN1[C@@H]2CC[C@H]1C[C@@H](OC(=O)c1cc(Cl)cc(Cl)c1)C2 [Bemesetron],anxiolytic effects in other animal models,[2],reported to exhibit anxiolytic effects in other animal models
same,response vs control in vivo at 0.0001 mg/kg,[1]; [13],89%
same,response vs control in vivo at 0.001 mg/kg,[1]; [13],129%
same,response vs control in vivo at 0.01 mg/kg,[1]; [13],156%
same,response vs control in vivo at 0.1 mg/kg,[1]; [13],116%
same,effect on punished responding (in words),[1]; [11],lack of any significant anxiolytic effect
"CN1C(=O)CN=C(c2ccccc2)c2cc(Cl)ccc21 [Diazepam, 7-chloro-1,3-dihydro-1-methyl-5-phenyl-2H-1,4-benzodiazepin-2-one]",ataxia,[1]; 1.0 mg/kg s.c.,accompanied by ataxia
same,response vs control in vivo at 0.5 mg/kg,[1]; [15],162%
same,response vs control in vivo at 1 mg/kg,[1]; [15],296%
same,effect on punished responding (in words),[1]; [11],dose-related increase in punished responding (PR) at 0.5 and 1.0 mg/kg. This effect was large and significant
CCC1(C)CC(=O)NC1=O (stereo not drawn) [Ethosuximide],response vs control in vivo at 40 mg/kg,[1]; [9],64%
same,response vs control in vivo at 80 mg/kg,[1]; [10],133%
same,response vs control in vivo at 160 mg/kg,[1]; [14],61%
same,response vs control in vivo at 320 mg/kg,"[1]; Rattus norvegicus, po, 1 h, read-out: number of licks, percentage of vehicle control responding, 320 mg/kg p.o., one hour before test, vehicle=100% (Table 3)",96%
"Nc1nnc(-c2cccc(Cl)c2Cl)c(N)n1 [Compound A, 3,5-Diamino-6-(2,3-dichlorophenyl)-1,2,4-triazine]",acute oral toxicity (LD50),[4],250 mg/kg
same,LD50 at 240 h,[5],640 mg/kg
same,block of voltage-sensitive sodium channels,[6],use-dependent block of voltage-sensitive sodium channels
same,"inhibition of release of excitatory amino acids, principally glutamate",[7],"inhibit the release of excitatory. amino acids, principally glutamate"
